Earlier results on 17 compounds are cited in patent US8048872B2, “Treatment of hyperproliferative diseases with vinca alkaloid N-oxide and analogs” (Stat of Oregon Acting by and Through The Oregon State Board …, priority 2006, dated 2011).

The conditions of the data set: cited from earlier work; for patients developing pneumonia: refractory chronic lymphocytic leukemia.
The mark [1] stands for this setting: non-Hodgkin's lymphoma, 9 mcg/kg/d IV days 1-5, every 21 days.
Where [2] appears, read: non-Hodgkin's lymphoma, 9 or 18 mcg/kg/d IV days 1-5, every 21 days, Grade III-IV.
Setting [3] is: non-Hodgkin's lymphoma, 18 mcg/kg/d IV days 1-5, every 21 days.
Where [4] appears, read: acute promyelocytic leukemia patients.

“And” between values parts separate entries of the source, which are not always exact repeats. Identical values can stand only once. Like-named read-outs stand apart in the source and are kept apart here.

For Denileukin diftitox, under setting [1], the Leukopenia result is given as “Leukopenia 6%” and the Neutropenia result was “Neutropenia 3%”. Besides, under setting [2], the “Constitutional Symptoms” value is listed as “Symptoms 37-47%”, the Gastrointestinal result is given as “Gastrointestinal 20-36%”, the Infection entry was “Infection 33-43%” and the “Infusion-Related Events: Back Pain” value is “Back Pain 6-11%”. Under setting [2], the “Infusion-Related Events: Chest Pain/Tightness” value was “Tightness 9%”, the “Infusion-Related Events: Dyspnea” value is “Dyspnea 6-11%”, the “Infusion-Related Events: Hypotension” value is “Hypotension 8-11%” and the “Infusion-Related Events: Pruritis” value is “Pruritis 6%”. Also, under setting [2], the “Infusion-Related Events: Vasodilation” value is on record as “Vasodilation 3%”, the Rash entry is “Rash 19-23%”, the “Right Heart Failure” value is listed as “Right Heart Failure 3-6%” and the “Thrombotic Events” value is reported as “Thrombotic Events 3-8%”. For the same compound, the “Vascular Leak Syndrome” value under setting [2] is “Syndrome 17-25%”. Also, under setting [3], the Leukopenia result was “Leukopenia 3%” and the Neutropenia result is recorded as “Neutropenia 3%”.

Take `O=c1[nH]cc(F)c(=O)[nH]1` [5-Fluorouracil]: where the note is “human, in vivo, iv”, the Diarrhea result is “Diarrhea* 22%”, the “Hand-Foot Syndrome” value is listed as “Syndrome* 14%”, the “Leukopenia/Neutropenia Toxicity” value was “Grade III-IV 0%” and the Stomatitis result was “Stomatitis* 31%”.

As to `CC1=C(/C=C/C(C)=C/C=C/C(C)=C/C(=O)O)C(C)(C)CCC1` [all-trans-retinoic acid, reference compound], under setting [4], the lethal pulmonary toxicity is 2%, the life-threatening pulmonary toxicity is 11%, the “patients developing grade III or IV pulmonary toxicity (total)” value is “Twenty” and the severe pulmonary toxicity is on record as 7%.

For the compound `Nc1nc(F)nc2c1ncn2[C@@H]1O[C@H](CO)[C@@H](O)[C@@H]1O` [Fludarabine], where the note is “Grade III-IV”, the Diarrhea entry is reported as “Diarrhea 2%”, the Nausea entry is listed as “Nausea 3%”, the Neuropathy result is reported as “Neuropathy 4%” and the Stomatitis result is listed as “Stomatitis 2%”. Further, the Thrombocytopenia result (Grade III-IV) is given as “Thrombocytopenia 25%”. For the setting “Grade IV (of cycles)”, the Neutropenia result is “Neutropenia 56%”. Moreover, the “Febrile Infection During Cycles 1-3” value (human, in vivo) was “Cycles 1-3 30%”.

Consider `CN(C)/N=N/c1[nH]cnc1C(N)=O` [Dacarbazine], for which, for the setting “human, in vivo, iv”, the “Anemia Grade III-IV” value was “Anemia Grade III-IV 6%”, the “Anemia Grade IV” value was “Anemia Grade IV 1%”, the “Asthenia (Grade III)” value is “Asthenia (Grade III) 1%” and the “Constipation (Grade III)” value was “(Grade III) 3%”. Where the note is “human, in vivo, iv”, the Dyspnea result is “Dyspnea 1%”, the “Fatigue (Grade III)” value is “Fatigue (Grade III) 2%”, the “Fever (Grade III)” value was “Fever (Grade III) 2%” and the “Headache (Grade III)” value is “Headache (Grade III) 1%”. Also, under “human, in vivo, iv”, the “Leukopenia without neutropenia Grade III” value was “Grade III 1%”, the “Nausea (Grade III)” value is “Nausea (Grade III) 4%”, the Nausea/Vomiting entry is reported as “Nausea/Vomiting 5%” and the “Pain (Grade III)” value is “Pain (Grade III) 13%”. For the same compound, where the note is “human, in vivo, iv”, the “Somnolence (Grade III)” value is reported as “(Grade III) 1%” and the “Vomiting (Grade III)” value was “Vomiting (Grade III) 4%”.

Take `Nc1nc(F)nc2c1ncn2[C@@H]1O[C@H](COP(=O)(O)O)[C@@H](O)[C@@H]1O` [fludarabine phosphate, reference compound]: the patients developing pneumonia is 22% (15-25 mg/m^2 daily for five days every 28 days) and 16% (22-40 mg/m^2 daily for five days every 28 days).

For `CC1=C(/C=C/C(C)=C/C=C/C(C)=C/C(=O)O)C(C)(C)CCC1` [ATRA], under “Maintenance Therapy (n = 94)”, the Hepatotoxicity entry is “Hepatotoxicity 5.3%”, the Infection entry was “Infection 7.4%”, the “Life-Threatening Toxicity” value is given as “Toxicity 36%” and the Neurotoxicity entry was “Neurotoxicity 11.7%”.

Take `Nc1nc(Cl)nc2c1ncn2[C@H]1C[C@H](O)[C@@H](CO)O1` [Cladribine]: where the note is “Grade III-IV”, the “Anemia Grade III-IV” value is listed as 22%, the “Documented Infection” value is listed as “Infections 13%”, the “Leukopenia/Neutropenia Toxicity” value is “Grade III-IV 87%” and the “Neutropenic Fever” value was “Neutropenic Fever 42%”. The Thrombocytopenia result (Grade III-IV) was “Thrombocytopenia 20%”.

Regarding `Nc1ccn([C@@H]2O[C@H](CO)[C@@H](O)[C@@H]2O)c(=O)n1` [Cytarabine], the “CNS Toxicities” value was “CNS Toxicities 12%” (human, in vivo, iv) and “(32% with age >60 yrs)” (human, in vivo).

Alemtuzumab: under “Grade III-IV”, the “Anemia Grade III-IV” value is listed as 38%, the Bronchitis/Pneumonitis is recorded as 13%, the Dyspnea result is listed as “Dyspnea 9%” and the Fatigue entry is listed as “Fatigue 5%”. In addition, for the setting “Grade III-IV”, the Fever entry is “Fever 19%”, the Hypotension entry is reported as “Hypotension 5%”, the Neutropenia is recorded as 64% and the Pneumonia result is on record as “Pneumonia 10%”. Further, where the note is “Grade III-IV”, the Rigors entry is “Rigors 16%”, the Sepsis result is listed as “Sepsis 10%”, the Thrombocytopenia result is “Thrombocytopenia 50%” and the Urticaria result is given as “Urticaria 5%”.

Regarding Liposomal doxorubicin, where the note is “human, in vivo, iv”, the “Anemia Grade III-IV” value was 9.8%, the Leukopenia entry was “Leukopenia 36%”, the Mucositis entry is given as “Mucositis 5%” and the Nausea/Vomiting entry was “Nausea/Vomiting 15%”. Moreover, for the setting “human, in vivo, iv”, the “Neutropenia Grade IV” value is on record as “Grade IV 6%”, the “Neutropenic Fever” value is “Neutropenic Fever 11%”, the “Palmar-Plantar Erythrodysesthesia” value is recorded as “Erythrodysesthesia 29%” and the “Peripheral Neuropathy” value was 6%. Further, for the setting “human, in vivo, iv”, the Stomatitis result is listed as “Stomatitis 14%” and the Thrombocytopenia entry is on record as “Thrombocytopenia 3%”.

Consider `CC[C@@]1(O)C(=O)OCc2c1cc1n(c2=O)Cc2cc3c(CN(C)C)c(O)ccc3nc2-1` [Topotecan], for which, where the note is “human, in vivo, iv”, the Anorexia entry is on record as “Anorexia 1%”, the Diarrhea entry is recorded as “Diarrhea 1%”, the Fatigue entry is “Fatigue 5%” and the “Neutropenic Sepsis” value is reported as “Neutropenic Sepsis 5%”. Further, for the setting “human, in vivo, iv”, the Sepsis entry is “Sepsis 9%”, the “Severe Bleed” value is “Severe Bleed <1%” and the Stomatitis result is “Stomatitis 2%”. Also, where the note is “human, in vivo”, the “Leukopenia/Neutropenia Toxicity” value is reported as “Grade III 15%”.

Turning to `CCCCCOC(=O)Nc1nc(=O)n([C@@H]2O[C@H](C)[C@@H](O)[C@H]2O)cc1F` [Capecitabine], under “human, in vivo, iv”, the Dehydration result was “Dehydration 4%”, the Fatigue result was “Fatigue 7%”, the Hyperbilirubinemia is reported as 17.3% and the Hyperglycemia entry was “Hyperglycemia 8.7%”. For the same compound, where the note is “human, in vivo, iv”, the “Leukopenia/Neutropenia Toxicity” value is recorded as “Grade III-IV 3%”, the Nausea result is “Nausea 4%”, the Stomatitis result is listed as “Stomatitis 3%” and the Vomiting result is recorded as “Vomiting 4%”. Moreover, the Leukopenia result (human, in vivo) is on record as “Grade III 0.3%”.

On to Gemcitabine + Cisplatin, for which, under “Grade III-IV”, the “Anemia Grade III-IV” value is 25% and 27%; the “Cardiac Dysrhythmia” value is 2.8%; the Dyspnea result was “Dyspnea 7%”; the “Elevated Creatinine” value is listed as “Elevated Creatinine 4.8%”. In addition, under “Grade III-IV”, the Nausea result is “Nausea 27%”, the Neurohearing result is “Neurohearing 6%”, the “Neutropenic Sepsis” value is given as “Neutropenic Sepsis 1%” and the Pulmonary entry was “Pulmonary 3%”. Also, where the note is “Grade III-IV”, the Vomiting entry is “Vomiting 23%”. Under “Grade III”, the Alopecia is recorded as 10.5%, the Diarrhea result is “Diarrhea (Grade III) 3%”, the Granulocytopenia result is “Grade III 21.7%” and the Hematuria is listed as 4.5%. Under “Grade III”, the Nausea/Vomiting result is “(Grade III) 22%”, the Neuromotor is given as 11.5% and the Neutropenia was 41.2%. Where the note is “Grade IV”, the Granulocytopenia result is listed as “Grade IV 35.3%” and the Neutropenia is on record as 29.9%.

Consider `Nc1ccn([C@@H]2O[C@H](CO)[C@@H](O)C2(F)F)c(=O)n1` [gemcitabine, reference compound], for which, under “human, in vivo, iv”, the Constipation entry was “Constipation 3%”, the “Deep Vein Thrombosis” value is recorded as 3%, the Diarrhea entry is recorded as “Diarrhea 2%” and the Edema result is “Edema 5%”. Moreover, where the note is “human, in vivo, iv”, the Fever entry is recorded as “Fever 3%”, the “Increased Bilirubin” value is recorded as “Increased Bilirubin 41%”, the “Neutropenic Fever” value is “Neutropenic Fever 3%” and the Pain result is recorded as “Pain 2%”. Moreover, under “human, in vivo, iv”, the Respiratory entry is “Respiratory 5%”, the “State of Consciousness” value is recorded as “Consciousness 2%” and the “patients with grade III-IV respiratory toxicity” value was 2 out of 40. In addition, where the note is “human, in vivo”, the “Anemia Grade III” value is “Anemia Grade III 14.3%”, the Hepatotoxicity result is “(Grade III) 14.3%”, the Infection result is “(Grade III) 3.6%” and the Leukopenia was 10.7%. Where the note is “human, in vivo”, the “Leukopenia/Neutropenia Toxicity” value is given as “Grade III 19%” and the “Skin Rash” value is “(Grade III) 3.6%”.

On to `CN(Cc1cnc2nc(N)nc(N)c2n1)c1ccc(C(=O)N[C@@H](CCC(=O)O)C(=O)O)cc1` [Methotrexate], for which, under “human, in vivo”, the “Hepatotoxicity (Grade III)” value is 24.4% (all ages) and the “Hepatotoxicity (Grade IV)” value is listed as 2.4% (all ages).

In the case of Arsenic trioxide, for the setting “Grade III-IV”, the “Anemia Grade III-IV” value was “Anemia Grade III-IV 5%”, the Arthralgia/Myalgia result was “Arthralgia/Mylagia 13%”, the Convulsions entry is “Convulsions 5%” and the “Disseminated Intravascular Coagulation” value is on record as 8%. Also, for the setting “Grade III-IV”, the Dyspnea result is “Dyspnea 10%”, the “Febrile Neutropenia” value is listed as “Febrile Neutropenia 8%”, the Fever result is “Fever 5%” and the Hyperglycemia result is listed as “Hyperglycemia 13%”. Under “Grade III-IV”, the Hypokalemia entry was “Hypokalemia 13%”, the Hypomagnesemia entry is on record as “Hypomagnesemia 13%”, the Hypoxia entry is “Hypoxia 10%” and the Leukocytosis entry is on record as “Leukocytosis 3%”. For the setting “Grade III-IV”, the Neutropenia is reported as 10%, the Paresthesias entry is “Paresthesias 5%”, the Sepsis result is “Sepsis 5%” and the Thrombocytopenia result was “Thrombocytopenia 12%”.
